Some test systems named below: MDA-MB-435; A549 NSCLC; SK-MEL-28 melanoma; LOX IMVI melanoma; HT29 colon; T-47D breast; M14 melanoma; SNB-75 CNS; DU-145 prostate.
Common to all, as to test: DTP human tumour cell line panel, 48 h

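How tested: cells in 96-well plates exposed to compound for 48 hours at five concentrations. TGI: total growth inhibition.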

As for `COc1ccc(C2c3cc4c(cc3OC(N3CCOCC3)C2C)OCO4)c(OC)c1OC` (configuration not stated), the TGI (in general, the concentration giving total growth inhibition) in the test on MDA-MB-435 was 7.01 µM; with A549 NSCLC, over 100 µM; in the test on SK-MEL-28 melanoma, 82 µM; in the test with LOX IMVI melanoma it was 33.9 µM; with HT29 colon it was 52.2 µM; in the test on T-47D breast, over 100 µM. For the same compound, the TGI in the test on M14 melanoma turned out to be 33.5 µM.

As for `C=C(C)C1C/C=C(/C)CCCC2(CCC3=C(CC(C(=C)C)C/C=C(/C)CCC3)O2)C(=O)C1` (configuration not stated), the TGI in the test on SNB-75 CNS, in the test on A549 NSCLC, with SK-MEL-28 melanoma, with LOX IMVI melanoma, in the test with HT29 colon and in the test with M14 melanoma was over 100 µM each time.

Take `O=c1cc(N2CCCC2)[nH]c(=O)n1-c1ccccc1`: the TGI with SNB-75 CNS, in the test on MDA-MB-435, in the test on A549 NSCLC, with SK-MEL-28 melanoma, in the test with LOX IMVI melanoma and in the test on HT29 colon was over 100 µM each time. The TGI with DU-145 prostate and with M14 melanoma was over 100 µM throughout.

As to `CC1(C)[C@H]2CC[C@@]13C(=O)N1C(=O)O[C@@H]([C@H]1Cl)C(Cl)(COCc1ccccc1)C(=O)OCCO[C@H]3C2` (some centres not stated), the TGI in the test on SNB-75 CNS, with MDA-MB-435, in the test with A549 NSCLC, in the test with SK-MEL-28 melanoma, in the test with LOX IMVI melanoma and with HT29 colon was over 100 µM in each case. Further, the TGI in the test on T-47D breast and in the test with M14 melanoma was over 100 µM in each case.

As to `O=C(C(Cl)=C(N1CCOCC1)N1CCOCC1)C(Cl)Cl`, the TGI with MDA-MB-435, in the test on A549 NSCLC, in the test with SK-MEL-28 melanoma, in the test on LOX IMVI melanoma, in the test with HT29 colon and in the test on DU-145 prostate was over 100 µM each time. Further, the TGI in the test with T-47D breast and in the test with M14 melanoma was over 100 µM each time.

Take `COc1cc2c(cc1Cc1c(F)cccc1Cl)nc(-c1c(F)cccc1Cl)n2Cc1c(F)cccc1Cl`: the TGI with SNB-75 CNS was 70.4 µM; in the test on MDA-MB-435 it was over 100 µM; in the test on A549 NSCLC, over 100 µM; in the test with SK-MEL-28 melanoma, over 100 µM; with HT29 colon, over 100 µM; in the test on DU-145 prostate it was over 100 µM. Also, the TGI in the test on T-47D breast was 59.5 µM; in the test with M14 melanoma, over 100 µM.

Regarding `C=C1c2nc3ccccc3n2C=C(c2ccc(Cl)cc2)N1c1ccc(OC)cc1`, the TGI is 7.13 µM in the test with SNB-75 CNS; 30.5 µM in the test with MDA-MB-435; 30.4 µM with A549 NSCLC; 22.2 µM in the test with SK-MEL-28 melanoma; over 100 µM with LOX IMVI melanoma; 61.8 µM in the test with DU-145 prostate. In the test with M14 melanoma, this compound registered a TGI of 21 µM.

Take `Cc1cnc2c(c1)C(=O)C1=C(C2=O)C2OC(=O)CC2OC1(C)C` (configuration not stated): the TGI was 4.1 µM in the test with SNB-75 CNS; 0.912 µM with MDA-MB-435; 5.62 µM in the test with A549 NSCLC; 2.04 µM with SK-MEL-28 melanoma; 1.25 µM with HT29 colon; 3.02 µM in the test with DU-145 prostate. For the same compound, the TGI with T-47D breast came out at 1.42 µM; with M14 melanoma, 0.824 µM.

`COc1cc2ccc1OCc1cccc(n1)COc1ccc(cc1OC)C=Nc1ccc(cc1)N=C2`: the TGI in the test with SNB-75 CNS, in the test on MDA-MB-435, with A549 NSCLC, with LOX IMVI melanoma, in the test with HT29 colon and in the test with DU-145 prostate was over 100 µM each time. The TGI in the test on T-47D breast and in the test on M14 melanoma was over 100 µM each time.

Turning to `CCOC(=O)C(NC(=O)c1nc[nH]c1[N+](=O)[O-])C(C)C` (configuration not stated), the TGI with SNB-75 CNS, in the test with A549 NSCLC, in the test with SK-MEL-28 melanoma, with LOX IMVI melanoma, in the test on HT29 colon and with M14 melanoma was over 100 µM each time.

With `CC(=O)O[C@H]1CCc2c(cc(N)c3c2C(=O)C[C@]2(C)C([C@H](C)CCCC(C)C)CCC32C)C1(C)C` (some centres not stated), the TGI in the test with SNB-75 CNS, in the test with MDA-MB-435, in the test with A549 NSCLC, with SK-MEL-28 melanoma, in the test with HT29 colon and in the test with DU-145 prostate was over 100 µM each time. The TGI in the test with T-47D breast and in the test with M14 melanoma was over 100 µM in each case.

`CCON1CC(C(=O)OC)=C(O)C1=O`: the TGI with SNB-75 CNS, in the test on MDA-MB-435, in the test with A549 NSCLC, in the test on SK-MEL-28 melanoma, with HT29 colon and in the test with DU-145 prostate was over 100 µM each time. Also, the TGI in the test with T-47D breast and in the test with M14 melanoma was over 100 µM in each case.

Consider `O=C(c1ccncc1)C1C(=O)c2ccccc2C1C1(O)c2ccccc2CC1C(O)c1ccncc1` (configuration not stated), for which the TGI with SNB-75 CNS was over 100 µM; in the test with MDA-MB-435, 47.9 µM; in the test on A549 NSCLC it was over 100 µM; with SK-MEL-28 melanoma, over 100 µM; in the test on LOX IMVI melanoma, over 100 µM; with HT29 colon it was over 100 µM. In addition, the TGI in the test on T-47D breast and with M14 melanoma was over 100 µM each time.

`O=c1cc(/C=C/c2ccccc2)[nH]c2cc3c(cc12)OCO3`: the TGI with SNB-75 CNS is 40.2 µM; in the test with MDA-MB-435, 4.29 µM; in the test on A549 NSCLC it was 21.4 µM; in the test on SK-MEL-28 melanoma, 34.9 µM; with HT29 colon, 5.58 µM; with DU-145 prostate, over 100 µM. In addition, the TGI with T-47D breast turned out to be 17.3 µM; in the test on M14 melanoma it was 17.1 µM.

Consider `CC(=O)OC1CCC2C3CCc4c(C)ccc(OS(=O)(=O)c5ccccc5)c4C3CCC12C` (configuration not stated), for which the TGI with MDA-MB-435, with SK-MEL-28 melanoma, in the test on LOX IMVI melanoma, in the test on HT29 colon and in the test on DU-145 prostate was over 100 µM each time.

Consider `O=C1CSC2=NC3=C(COC/C3=C\c3ccc(Br)cc3)C(c3ccc(Br)cc3)N12` (configuration not stated), for which the TGI with SNB-75 CNS was over 100 µM; in the test with MDA-MB-435 it was over 100 µM; with LOX IMVI melanoma, over 100 µM; in the test on DU-145 prostate, over 100 µM; in the test with T-47D breast, over 100 µM; in the test with M14 melanoma, 94.6 µM.

Turning to `CCOC(=O)c1nc2cc(C(F)(F)F)ccc2nc1Nc1ccc(C(=O)NC(C(=O)OCC)C(=O)OCC)cc1`, the TGI was over 100 µM with MDA-MB-435; 69.2 µM in the test with SK-MEL-28 melanoma; over 100 µM in the test with LOX IMVI melanoma; over 100 µM in the test with HT29 colon; over 100 µM in the test with DU-145 prostate.

(Values after PubChem BioAssay (NCI).)
